Experimental data: US12605386B2, “Sapropterin formulation” (APR Applied Pharma Research SA, priority 2022, dated 2026)
Where two headings read alike, the source gives them in different places.

What was measured:
[1] = Visual observation of unformulated SPT solutions; assay type: physicochemical; conditions: 100 mM solutions; yellow/orange colour developed overtime
Protocol: Stability over time of unformulated SPT solutions was initially investigated through visual observation of 100 mM solutions. The solutions were seen to be very unstable and a yellow/orange colour developed overtime, presumably due to the formation of oxidation sub-products.

[2] = Peroxide degradation of sapropterin with HPLC analysis; assay type: physicochemical; conditions: peroxide degradation: 5 mL of 0.1% H2O2, 1.5 hours, room temperature
Protocol: A sample of sapropterin was subjected to peroxide degradation with 5 mL of 0.1% H2O2 for 1.5 hours at room temperature.
HPLC analysis of the resulting oxidative degradation of sapropterin was performed according to the procedure described below and the results are shown in Table 2.
• Column: YMC Pack ODS AQ (250×4.6) mm, […] • Buffer: potassium dihydrogen phosphate pH3.0 with orthophosphoric acid • Mobile Phase A: 100% Buffer • Mobile Phase B: acetonitrile:methanol (1:9) • Wavelength: 220 nm for Impurity A, C, D, E, G • Wavelength: 275 nm for Impurity F • Flow: 0.6 ml/min • Injection Volume: 5 μl • Column Temperature: 30° C. • Sample Compartment: 5° C. • Run Time: 45 min Preparation of Mobile Phase: • Mobile Phase A: 2.72 g of potassium dihydrogen phosphate was added to 1000 ml of water and dissolved. pH was adjusted to 3.0 using orthophosphoric acid. The solution was mixed and filtered through 0.45 μm nylon membrane filter and degassed. • Mobile Phase B: 900 ml of methanol and 100 ml of acetonitrile was dissolved, mixed, and degassed.
Preparation of 0.1N HCl: 8.5 ml of hydrochloric acid was added to 900 ml of water, diluted to 1000 ml with water, and then mixed.
Diluent: 2.72 g of potassium dihydrogen phosphate was added to 1000 ml of water and dissolved. pH was adjusted to 3.0 using orthophosphoric acid. 10 mg of ascorib acid was added, mixed, and then filtered through 0.45 μm nylon membrane filter and degassed.

[3] = HPLC analysis of sapropterin solutions in water; assay type: physicochemical
Protocol: Visual observations of degradation of sapropterin solutions were confirmed through HPLC analysis. The following methodology was used: Samples that were diluted to ca. 1 mM prior to analysis. HPLC Method • Column: Partisil […] SCX 250× (from […]) • Mode: isocratic • Mobile phase: KH2PO4 30 mM at pH 3.0 • Oven temperature: 30° C. • injection volume: 25 μL • flow: 1.5 mL/min (generated ca. 60 bar) • Detection: DAD 254-360 with acquisition at 254 HPLC System (VWR Hitachi) • VWR Hitachi L-2000 organizer • DAD: L2455 • Autosampler: L2200 • Pump: L2130 • Column oven: L2350 Preparation of Mobile Phase • 1) V (H2O)=500 mL • 2) m(KH2PO4)=2.04 g (MW=136.09 g/mol) • 3) To pH 3 with phosphoric acid diluted 50 fold with water (v/v) • Note: prior to dilution phosphoric acid stock was at 85% • Note2: 5-8 g of 1/50 diluted solution are required to drop pH to 3.0 Three solutions of sapropterin in water at 100 mM were submitted to HPLC analysis. Each solution was tested at a different time point one was tested when freshly prepared, one after one day and the other after 7 weeks old.

[4] = Vegetable oil suspension stability study, water extraction and HPLC; assay type: physicochemical; conditions: oil free control; freshly prepared aqueous solutions
Protocol: A simple stability study was carried out to establish the stability potential of the formulations tested. The stability study was carried out for a month at room temperature as this would reflect the conditions under which the material would be stored.
The stability work was focused on vegetable oils. Food grade vegetable oils were tested and they were sourced from a supermarket and only opened before starting the stability work. Exploratory stability work was then carried out to establish the potential of liquid formulations for sunflower oil, olive oil, rapeseed oil and rice bran oil.
Stability was informally assessed by preparing 10% w/w sapropterin suspensions and storing at room temperature on a shelf away from direct sunlight. Individual aliquots were prepared at each time point. At each sampling point sapropterin was extracted from oil with water as set out below and the sample analysed by HPLC. Absence of degradation products was used to establish lack of oxidation. The HPLC method set out above was not validated for quantitative analysis. Instead, SPT peak size was also semi-quantitatively used to further corroborate absence of oxidation but this was carried out by simply overlaying traces (e.g. SPT peak size at day 0 vs day 7) rather than performing calibrations curves of SPT. […]
Samples were analysed at day 0, day 5, day 7, and/or day 31.

[5] = powder and tablet formulations suspended in various foods and water at 20 mg/mL (62 mM); after one hour; cited from earlier work
[6] = cited from earlier work
[7] = cited from earlier work; remark: listed apart in the source
[8] = 0.1 M phosphate buffer, pH 6.8, room temperature

Question: What does the source list for `C[C@H](O)[C@H](O)[C@H]1CNc2nc(N)[nH]c(=O)c2N1` [Sapropterin, sapropterin]?
Answer: stability over time (visual observation) [1]: very unstable; Impurities (% w/w): Impurity A [2]: 0.02 % w/w; Impurities (% w/w): Impurity B [2]: 11.791 % w/w; Impurities (% w/w): Impurity C [2]: 5.322 % w/w; Impurities (% w/w): Impurity D [2]: 0.116 % w/w; Impurities (% w/w): Impurity H [2]: 0.106 % w/w; Impurities (% w/w): Unknown impurity @RRT 0.70 [2]: 0.191 % w/w; Impurities (% w/w): Unknown impurity @RRT 0.85 [2]: 0.026 % w/w; Impurities (% w/w): Unknown impurity @RRT 0.89 [2]: 0.010 % w/w; Impurities (% w/w): Unknown impurity @RRT 0.94 [2]: 0.108 % w/w; Impurities (% w/w): Unknown impurity @RRT 1.11 [2]: 0.015 % w/w; Impurities (% w/w): Unknown impurity @RRT 1.41 [2]: 0.212 % w/w; Impurities (% w/w): Unknown impurity @RRT 1.54 [2]: 0.022 % w/w; Impurities (% w/w): Unknown impurity @RRT 1.63 [2]: 0.010 % w/w; Impurities (% w/w): Unknown impurity @RRT 1.77 [2]: 0.007 % w/w; Impurities (% w/w): Unknown impurity @RRT 2.08 [2]: 0.004 % w/w; Impurities (% w/w): Unknown impurity @RRT 2.15 [2]: 0.007 % w/w; Impurities (% w/w): Unknown impurity @RRT 2.24 [2]: 0.006 % w/w; Impurities (% w/w): Unknown impurity @RRT 2.34 [2]: 0.095 % w/w; major degradation products [2]: Impurities B and C; time after which an oxidation sub-product peak became evident ([3]; 1 mM solution): 2 h; oxidation product by HPLC ([3]; 100 mM in water, after 7 weeks): showed a peak at 4.2 min attributed to oxidation sub-products; oxidation product by HPLC ([3]; 100 mM in water, after one day): showed a peak at 4.2 min attributed to oxidation sub-products; oxidation product by HPLC ([3]; 100 mM in water, freshly prepared): did not show any oxidation product; reduction in the SPT peak by oxidation ([3]; 100 mM in water, within a period of 24 h): not pronounced; oxidation products by HPLC [4]: vestigial amounts of oxidation products; sapropterin degraded [5]: 3-7%; pH of solution in water ([6]; 1 mM solution): 3.0; pH of solution in water ([6]; 1 M solution): 0.45; solubility in water [6]: freely soluble; degradation of solution in water ([7]; 0.1 mM, after 1 hour open at room temperature): about 25%; degradation of solution in water ([7]; 0.1 mM, after 3 hours): more than 60%; degradation of solution in water ([7]; 1 mM, after 1 hour open at room temperature): 2%; degradation of solution in water ([7]; 1 mM, after 3 hours): 10%; half-life [7, 8]: ~16 min; time until completely destroyed [7, 8]: 90 min; stability of solutions in 0.1 N HCl ([7]; −20° C.): stable for several weeks
